The values that follow are results of earlier work, collected in US9758545B2, “Sensor with a scaffold having changeable conformations” (UNIVERSITÉ DE FRIBOURG, priority 2010, dated 2017).

The conditions of this data set: antibiotics integrated into implant cements.

With `CN[C@H](CC(C)C)C(=O)N[C@H]1C(=O)N[C@@H](CC(N)=O)C(=O)N[C@H]2C(=O)N[C@H]3C(=O)NC(C(=O)N[C@@H](C(=O)O)c4cc(O)cc(O)c4-c4cc3ccc4O)[C@H](O)c3ccc(c(Cl)c3)Oc3cc2cc(c3O[C@@H]2OC(CO)[C@@H](O)C(O)C2O[C@H]2CC(C)(N)[C@H](O)C(C)O2)Oc2ccc(cc2Cl)[C@H]1O` (stereo partly shown) [Vancomycin], the temperature sensitive above entry is “above 25 °C”.
